# Assay results published in patent US11028058B2, “Heterocyclic compounds as adenosine antagonists” (NUVATION BIO INC., priority 2017, dated 2021).
# What was measured:
# adenosine A2A receptor = adenosine A2A receptor (Homo sapiens (Human), UniProt P29274); assay: A2A adenosine receptor radioligand binding competition assay (filter plates)
# Experimental: (§1) Binding of selected compounds to the adenosine A2A, A1, A2B, and A3 receptors was tested using a binding competition assay.
# (§2) The general protocol for the radioligand binding competition assay was as follows. Competition binding was performed in duplicate in the wells of a 96 well plate (Master Block, Greiner, 786201) containing binding buffer (optimized for each receptor), membrane extracts (amount of protein/well optimized for each receptor), radiotracer (final concentration optimized for each receptor), and test compound. Nonspecific binding was determined by co-incubation with 200-fold excess of cold competitor. The samples were incubated in a final volume of 0.1 mL at 25° C. for 60 minutes and then filtered over filter plates. Filters were washed six times with 0.5 mL of ice-cold washing buffer (optimized for each receptor) and 50 μL of Microscint 20 (Packard) were added on each filter. The filter plates were sealed, incubated 15 min on an orbital shaker and scintillation counted with a TopCount for 30 sec/filter.
# For the A2A adenosine receptor radioligand binding assay, the following modifications were made to the general protocol. GF/C filters (Perkin Elmer, 6005174), presoaked in 0.01% Brij for 2 h at room temperature were used. Filters were washed six times with 0.5 mL of ice-cold washing buffer (50 mM Tris pH 7.4) and 50 μL of Microscint 20 (Packard) was added in each well. The plates were then incubated for 15 min on an orbital shaker and then counted with a TopCount™ for 1 min/well. Another radioligand binding assay was used to evaluate the binding affinity for the adenosine A2A receptor assay was performed in duplicate in the wells of a 384 plate. Assay buffer contained DPBS 500 mM, MgCl2 0.1 mM, and 1% DMSO. Membrane-bead suspension was prepared by mixing 25.98 μL of human adenosine A2A membrane preparation (Perkin Elmer, RBHA2AM400UA) at 33.4 μg/mL, 28 μL of ADA at 20 μg/mL, and 932 μL of SPA beads at 3.33 mg/mL) and incubated the mixture for 20 min at room temperature. Mixed 20 μL of radiotracer (^3H-SCH 58261) at 15 nM to each well containing test articles at various concentrations and centrifuge the plate at 1000 rpm for 1 minute. Added 30 μL of the membraine-bead suspension to each well. Sealed the plates and incubated for 1 hr at room temperature with vigorous mixing on a plate mixer. Plates were read on Microbeta^2 (Perkin Elmer, 2450-0010).
# [1] = molecular target: HEK-293 cells expressing human recombinant adenosine A2A receptor (Homo sapiens (Human), UniProt P29274); assay: cAMP assay, Assay 1 (HTRF kit); format: cell-based; settings: for inhibition at 0.1 µM: HEK293, 100 nM, read-out: A2a cAMP (% inh @ 100 nM)
# Experimental: The functional activity of compounds was tested using one of the two assays to detect the present of cAMP. Activation of G-protein coupled receptors (such as A2A) results in activation of adenylcyclase which converts ATP into cAMP which is used as a downstream signaling molecule. Therefore, molecules which act as GPCR (or specifically A2A receptor) antagonists cause a decrease in intracellular cAMP concentration.
# Both assays used HEK-293 cells expressing human recombinant adenosine A2A receptor were grown prior to the test in media without antibiotic.
# 12 μL of cells were mixed with 6 μL of the test compound at increasing concentrations and then incubated for 10 min. Thereafter 6 μL of the reference agonist was added at a final concentration corresponding to the historical EC80. The plates were then incubated for 30 min at room temperature. After addition of the lysis buffer and 1 hour incubation, cAMP concentrations were estimated, according to the manufacturer specification, with the HTRF® kit.
# [2] = molecular target: adenosine A1 receptor (CHO-K1-A1 cell membranes) (Homo sapiens (Human), UniProt P30542); assay: Adenosine A1 radioligand binding competition assay (3H-DPCPX)
# Experimental: as §1
# as §2, with “sec/filter. […]” for “sec/filter.”
# [3] = molecular target: adenosine A2B receptor (HEK-293-A2B cell membranes) (Homo sapiens (Human), UniProt P29275); assay: Adenosine A2B radioligand binding competition assay (3H-DPCPX)
# Experimental: as §1
# as §2, with “sec/filter. […]” for “sec/filter.”
# [4] = molecular target: adenosine A3 receptor (CHO-K1-A3 cell membranes) (Homo sapiens (Human), UniProt P0DMS8); assay: Adenosine A3 radioligand binding competition assay (125I-AB-MECA)
# Experimental: as §1, §2
# For the adenosine A3 radioligand binding competition assay, the following reagents were used:
# CHO-K1-A3 cell membranes, 1.5 μg/well; a binding buffer comprising HEPES 25 mM pH 7.4, MgCl2 5 mM, CaCl2 1 mM, 0.5% BSA; a wash buffer comprising HEPES 25 mM pH 7.4, MgCl2 5 mM, CaCl2 1 mM; a Unifilter GF/C—treated for 2 h with 0.5% BS; and 0.4 nM of ^125I-AB-MECA as the tracer.
# [5] = molecular target: recombinant human A2A receptor (Homo sapiens (Human), UniProt P29274); assay: GTPγ35S scintillation proximity assay for A2A receptor; format: biochemical; settings: read-out: A2A γGTP assay (% Inh Avg) @ 100 nM
# Experimental: For antagonist testing, membranes extracts were prepared from HEK-293 cells expressing recombinant human A2A receptor, were mixed with GDP (volume:volume) and were incubated in assay buffer comprising 20 mM HEPES pH 7.4; 100 mM NaCl, 10 μg/mL saponin, 5 mM MgCl2 for at least 15 min on ice. In parallel, GTPγ[^35S] was mixed with the beads (volume:volume) just before starting the reaction. The following reagents were successively added in the wells of an Optiplate (Perkin Elmer): 25 μL of test compound or reference ligand, 25 μL of the membranes: GDP mix, 25 μL of reference agonist at historical EC80 and 25 μL of GTPγ[^35S] (PerkinElmer NEG030X), diluted in assay buffer to give 0.1 nM. The plate was incubated at room temperature for 1 hour. Then, 20 μL of IGEPAL was added for 30 minutes at room temperature. Following this incubation, 20 μL of beads (PVT-anti rabbit (PerkinElmer, RPNQ0016)), diluted in assay buffer at 50 mg/mL (0.5 mg/10 μL) and 20 μL of an Anti-GαS/olf antibody were added for a final incubation of 3 hours at room temperature. Then, the plates were centrifuged for 10 min at 2000 rpm, incubated at room temperature for 1 hour and counted for 1 min/well with a PerkinElmer TopCount reader.
# HEK-293 cells expressing human recombinant adenosine A2A receptor, sequence (P29274 whole entry): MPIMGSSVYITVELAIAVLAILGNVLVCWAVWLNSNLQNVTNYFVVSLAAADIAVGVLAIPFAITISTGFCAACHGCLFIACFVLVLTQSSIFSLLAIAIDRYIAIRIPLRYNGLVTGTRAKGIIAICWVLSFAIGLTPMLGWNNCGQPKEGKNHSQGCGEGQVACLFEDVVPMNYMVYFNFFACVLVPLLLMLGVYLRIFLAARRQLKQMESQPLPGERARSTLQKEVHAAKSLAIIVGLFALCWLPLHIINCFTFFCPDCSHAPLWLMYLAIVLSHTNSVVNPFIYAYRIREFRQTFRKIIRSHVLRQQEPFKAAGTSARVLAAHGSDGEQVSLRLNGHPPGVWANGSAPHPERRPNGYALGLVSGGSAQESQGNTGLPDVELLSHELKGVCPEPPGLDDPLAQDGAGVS
# adenosine A2A receptor, sequence (P29274 whole entry): as above
# adenosine A1 receptor (CHO-K1-A1 cell membranes), sequence (P30542 whole entry): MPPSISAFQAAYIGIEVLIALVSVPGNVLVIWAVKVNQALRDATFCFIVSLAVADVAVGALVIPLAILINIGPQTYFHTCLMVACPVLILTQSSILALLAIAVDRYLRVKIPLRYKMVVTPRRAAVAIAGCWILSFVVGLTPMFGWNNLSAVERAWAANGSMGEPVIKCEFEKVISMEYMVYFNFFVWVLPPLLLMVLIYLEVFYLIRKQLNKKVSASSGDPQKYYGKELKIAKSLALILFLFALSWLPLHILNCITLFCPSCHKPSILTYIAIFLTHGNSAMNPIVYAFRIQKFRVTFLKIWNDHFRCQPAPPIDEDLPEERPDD
# adenosine A3 receptor (CHO-K1-A3 cell membranes), sequence (P0DMS8 whole entry): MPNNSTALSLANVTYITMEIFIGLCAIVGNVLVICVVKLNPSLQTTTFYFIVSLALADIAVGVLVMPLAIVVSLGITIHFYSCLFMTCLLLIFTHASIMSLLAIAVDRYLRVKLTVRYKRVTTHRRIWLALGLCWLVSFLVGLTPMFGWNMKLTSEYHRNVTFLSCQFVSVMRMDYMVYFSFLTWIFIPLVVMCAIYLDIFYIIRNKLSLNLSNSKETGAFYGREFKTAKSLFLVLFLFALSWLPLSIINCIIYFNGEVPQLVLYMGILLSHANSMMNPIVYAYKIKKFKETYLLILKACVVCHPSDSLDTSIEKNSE
# adenosine A2B receptor (HEK-293-A2B cell membranes), sequence (P29275 whole entry): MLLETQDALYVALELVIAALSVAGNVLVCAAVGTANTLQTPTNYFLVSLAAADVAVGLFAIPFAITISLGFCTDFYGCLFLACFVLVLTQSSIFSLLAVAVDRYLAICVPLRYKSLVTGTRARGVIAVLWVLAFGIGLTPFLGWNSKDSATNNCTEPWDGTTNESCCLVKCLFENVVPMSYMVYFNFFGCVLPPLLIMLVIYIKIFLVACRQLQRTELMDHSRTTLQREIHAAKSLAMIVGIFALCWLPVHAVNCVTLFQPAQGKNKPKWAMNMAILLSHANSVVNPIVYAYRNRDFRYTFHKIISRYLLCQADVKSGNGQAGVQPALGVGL
# recombinant human A2A receptor, sequence (P29274 whole entry): as the sequence (P29274 whole entry) above
SMILES,A2A radioligand binding competition assay % residual binding @ 100 nM (adenosine A2A receptor),inhibition at 0.1 µM [1] [%],A2A radioligand binding competition assay % residual binding @ 3000 nM (adenosine A2A receptor),further results
"Nc1cnc(-c2ccc3ocnc3c2)c(-c2ccccc2)n1 [Compound No. 1.18, 5-(benzo[d]oxazol-5-yl)-6-phenylpyrazin-2-amine]",,14,100/ND/ND/ND %,
"Cc1ccc(-c2nc(N)cnc2-c2ccc3ncccc3c2)o1 [Compound No. 1.20, 6-(5-methylfuran-2-yl)-5-(quinolin-6-yl)pyrazin-2-amine]",,81,3/ND/ND/ND %,
"Nc1cnc(-c2ccc3nccnc3c2)c(-c2ccccc2)n1 [Compound No. 1.16, 6-phenyl-5-quinoxalin-6-yl-pyrazin-2-amine]",,0,80/ND/ND/ND %,
"Nc1cnc(-c2ccc(O)cc2)c(-c2ccccc2)n1 [Compound No. 1.7, 4-(5-amino-3-phenylpyrazin-2-yl)phenol]",,100,,A2A radioligand binding competition assay % residual binding @ 300 nM (adenosine A2A receptor): ND/ND/100/ND %
"Nc1cnc(-c2ccc3ncccc3c2)c(-c2ccc(F)cc2)n1 [Compound No. 1.15, 6-(4-fluorophenyl)-5-(quinolin-6-yl)pyrazin-2-amine]",,0,104/ND/ND/ND %,
"Nc1cnc(-c2ccc3ncccc3c2)c(-n2cccn2)n1 [Compound No. 1.22, 6-(1H-pyrazol-1-yl)-5-(quinolin-6-yl)pyrazin-2-amine]",,24,39/ND/ND/ND %,
"Cc1ccc(-c2nc(N)cnc2-c2cc(Cl)c3ncccc3c2)o1 [Compound No. 1.21, 5-(8-chloroquinolin-6-yl)-6-(5-methylfuran-2-yl)pyrazin-2-amine]",,100,5/ND/ND/ND %,
"Nc1nc(-c2ccccc2)c(-c2ccc3ncccc3c2)nc1Br [Compound No. 1.14, 3-bromo-6-phenyl-5-(quinolin-6-yl)pyrazin-2-amine]",76%,100,12%,A2A radioligand binding competition assay % residual binding @ 300 nM (adenosine A2A receptor): 48%; A2A radioligand binding competition assay % residual binding @ 1000 nM (adenosine A2A receptor): 29%

# Further lines, with some results ahead:
A2A radioligand binding competition assay % residual binding @ 100 nM (adenosine A2A receptor),inhibition at 0.1 µM [1] [%],A2A radioligand binding competition assay % residual binding @ 3000 nM (adenosine A2A receptor),SMILES,further results
ND/ND/ND/57%,100,,"CC(=O)Nc1cnc(-c2ccc(O)c(Cl)c2)c(-c2ccccc2)n1 [Compound 1.3, N-(5-(3-chloro-4-hydroxyphenyl)-6-phenylpyrazin-2-yl)acetamide]",
ND/ND/ND/62%,100,,"Nc1cnc(-c2cc(Cl)c(O)c(Cl)c2)c(-c2ccccc2)n1 [Compound 1.2, 4-(5-amino-3-phenylpyrazin-2-yl)-2,6-dichlorophenol]",
30%,97,,"Nc1cnc(-c2ccc(O)c(Cl)c2)c(-c2ccccc2)n1 [Compound 1.1, 4-(5-amino-3-phenylpyrazin-2-yl)-2-chlorophenol]",A2A radioligand binding competition assay % residual binding @ 1000 nM (adenosine A2A receptor): 12%; IC50 (adenosine A2A receptor; Table B1-1): 57 nM; Radioligand binding competition assay % residual binding @ 300 nM (A1) [2]: −3%; Radioligand binding competition assay % residual binding @ 300 nM (A2B) [3]: −9%; Radioligand binding competition assay % residual binding @ 300 nM (A3) [4]: 96%; IC50 [1]: 6 nM; inhibition at 0.1 µM [5]: 82%
